# Results reported in patent publication US10100019B2.
# Like-named read-outs stand apart in the source and are kept apart here.
# How the values were obtained:
# [1] = system: H2228 cells; assay: cells; settings: Homo sapiens, NCI-H2228, 72 h, read-out: Cytotoxicity H2228 (GI50 μM), H2228 cells, three days, SRB
# [2] = system: H2228 cells; settings: human, 3 days
# [3] = system: H3122 cells; assay: Cytotoxicity in non-small cell lung cancer cell line H3122 (SRB); assay type: cell-based, human; settings: H3122 cells, three days, SRB
# Method: Particularly, 4,000 H3122 cells containing ALK enzyme were distributed in each well of a 96 well plate together with 100 μl of DMEM (Dulbecco's Modified Eagle's Medium). One day later, the compound of the present invention was added to each well at different concentrations of […]. DMSO (dimethylsulfoxide) was added to the well that was not loaded with the compound by the same amount as the compound. Three days after the addition of the compound, DMEM was eliminated. 10% TCA (trichloroacetic acid) was added to fix the cells. The wells were washed with running water three times and the live cells were stained with SRB solution (1 sulphorodamine B). Then, OD was measured to calculate the population of the live cells.
# [4] = biological target: ALK WT (Homo sapiens (Human), UniProt Q9UM73); settings: read-out: ALK WT (IC50 μM); ALK enzyme, HTRF
# Chain of ALK WT (Q9UM73 19-1620): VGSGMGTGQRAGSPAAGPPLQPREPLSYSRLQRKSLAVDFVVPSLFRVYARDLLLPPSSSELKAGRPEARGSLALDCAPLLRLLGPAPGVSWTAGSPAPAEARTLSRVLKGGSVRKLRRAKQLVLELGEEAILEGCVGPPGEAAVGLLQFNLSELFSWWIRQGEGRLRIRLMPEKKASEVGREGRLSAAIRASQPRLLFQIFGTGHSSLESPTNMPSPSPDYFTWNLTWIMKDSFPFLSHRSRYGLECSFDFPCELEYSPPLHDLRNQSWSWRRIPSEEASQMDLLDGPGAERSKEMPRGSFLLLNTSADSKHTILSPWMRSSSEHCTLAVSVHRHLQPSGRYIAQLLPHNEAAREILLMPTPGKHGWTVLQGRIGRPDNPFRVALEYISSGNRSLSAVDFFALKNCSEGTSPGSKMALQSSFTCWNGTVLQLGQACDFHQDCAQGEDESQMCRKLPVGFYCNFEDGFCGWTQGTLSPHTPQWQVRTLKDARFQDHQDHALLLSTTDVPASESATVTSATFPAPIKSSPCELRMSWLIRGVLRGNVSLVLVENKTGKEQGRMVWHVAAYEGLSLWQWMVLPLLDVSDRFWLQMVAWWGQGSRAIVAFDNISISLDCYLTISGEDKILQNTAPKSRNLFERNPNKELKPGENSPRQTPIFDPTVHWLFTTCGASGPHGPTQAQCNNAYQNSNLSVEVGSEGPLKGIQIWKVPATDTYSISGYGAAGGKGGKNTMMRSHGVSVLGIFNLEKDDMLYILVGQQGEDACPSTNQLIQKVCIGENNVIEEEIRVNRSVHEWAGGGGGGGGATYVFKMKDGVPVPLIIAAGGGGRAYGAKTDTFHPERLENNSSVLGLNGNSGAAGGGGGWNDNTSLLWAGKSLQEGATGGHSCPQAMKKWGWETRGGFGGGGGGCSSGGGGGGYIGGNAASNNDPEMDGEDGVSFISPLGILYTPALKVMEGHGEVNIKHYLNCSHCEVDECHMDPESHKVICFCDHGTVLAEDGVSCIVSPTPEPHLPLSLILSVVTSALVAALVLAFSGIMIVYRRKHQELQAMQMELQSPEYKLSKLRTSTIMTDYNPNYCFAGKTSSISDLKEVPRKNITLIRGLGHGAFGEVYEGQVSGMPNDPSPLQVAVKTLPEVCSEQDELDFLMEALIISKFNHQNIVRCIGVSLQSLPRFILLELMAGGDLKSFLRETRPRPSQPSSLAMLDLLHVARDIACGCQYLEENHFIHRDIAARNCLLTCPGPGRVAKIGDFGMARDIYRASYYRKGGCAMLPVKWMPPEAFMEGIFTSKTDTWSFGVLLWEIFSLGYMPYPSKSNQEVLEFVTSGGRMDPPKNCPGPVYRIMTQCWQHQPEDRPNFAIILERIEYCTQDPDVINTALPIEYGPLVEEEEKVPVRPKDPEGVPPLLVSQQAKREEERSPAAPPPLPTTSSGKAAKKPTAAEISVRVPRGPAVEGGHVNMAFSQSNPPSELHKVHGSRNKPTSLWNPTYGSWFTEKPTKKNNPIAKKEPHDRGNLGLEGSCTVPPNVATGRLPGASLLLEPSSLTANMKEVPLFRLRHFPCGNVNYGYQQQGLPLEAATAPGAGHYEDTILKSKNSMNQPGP
# Method: To measure the activity to inhibit ALK, each of the compounds prepared in examples listed in table 2 (2 μl) was loaded in a 384 well plate. Then, each of the compounds was mixed with anaplastic lymphoma kinase (ALK) enzyme (1 μl) and biotin conjugated peptide substrate (2 μl), followed by culture for 15 minutes. ATP solution (5 μl) was added thereto, followed by kinase reaction at room temperature for 30 minutes. […] Upon completion of the reaction, one hour culture was performed, followed by analysis using homogeneous time-resolved fluorescence (HTRF, Cisbio).
# [5] = system: Ba/F3 EML4-ALK WT cells; assay: cells; assay type: cell-based, rodent; settings: Ba/F3 EML4-ALK, read-out: Ba/F3 EML-ALK WT (IC50 μM)
# [6] = system: H3122 induced lung cancer; assay: In vivo xenograft evaluation for H3122 induced lung cancer; parameters: species or system nude mice (BALB/c nu/nu); settings: H3122 xenograft in nude mice, orally administered q.d.×14, FIG. 1
# Description: The nude mice (BALB/c nu/nu, female) used in this experiment were purchased from Charles River Japan, Inc. and raised and tested under SPF (Specific Pathogen Free) control. The human non-small cell lung cancer cell line H3122 maintained by Korea Research Institute of Chemical Technology was used in this experiment.
# The female nude mice adapted to the laboratory were implanted with cancer. Particularly, H3122 cells grown to the appropriate size for passage were cut into 3×3×3 mm^3, which was transplanted (s.c.) under the right side of the nude mouse. When the size of the implanted cancer reached about 200 mm^3, administration of the compound of example 58 was started; this was the first day (day 1). For the control, 20% PEG 400+3% Tween 80 in DDW was orally administered. For the experimental group (7 mice/group), the compound was dissolved in the same solvent of the control, which was orally administered 14 times in total (q.d.×14). The size of the cancer was measured every 2-3 days after the administration using a caliper and the diameters (long diameter (a), short diameter (b)) of the cancer were measured. The size of the cancer (volume, V) was calculated according to mathematical formula 1. Volume (mm^3)=a×b^2/2 Mathematical Formula 1
# (In the mathematical formula 1,
# a represents the horizontal length of the cancer; and
# b represents the vertical short length of the cancer).
Structure (SMILES),GI50 [1],GI50 [2],GI50 [3],"GI50 ([3]; Homo sapiens, NCI-H3122, 72 h)",IC50 [4],IC50 [5],size of the cancer (volume) [6]
"COC(=O)CCNCCc1ccc(OC)c(Nc2ncc(Cl)c(Nc3ccccc3S(=O)(=O)C(C)C)n2)c1 [Example 24, methyl 3-(3-(5-chloro-4-(2-(isopropylsulfonyl)phenylamino)pyrimidine-2-ylamino)-4-methoxyphenethylamino)propanoate]",≤ 1 µM,660 nM,0.09 µM,≤ 0.1 µM,,,
"COc1ccc(CCN(CCO)CCO)cc1Nc1ncc(Cl)c(Nc2ccccc2S(=O)(=O)C(C)C)n1 [Example 39, 2,2′-(3-(5-chloro-4-(2-(isopropylsulfonyl)phenylamino)pyrimidine-2-ylamino)-4-methoxyphenethylazeindiyl)diethanol]",≤ 1 µM,870 nM,,0.93 µM,,,
"COc1cc(CCN)c(C)cc1Nc1ncc(Cl)c(Nc2ccccc2S(=O)(=O)C(C)C)n1 [Example 55, N2-(4-(2-aminoethyl)-2-methoxy-5-methylphenyl)-5-chloro-N4-(2-(isopropylsulfonyl)phenyl)pyrimidine-2,4-diamine]",,,,0.06 µM,0.0027 µM,,
"COc1cc(C(C)(C)CN)c(C)cc1Nc1ncc(Cl)c(Nc2ccccc2S(=O)(=O)C(C)C)n1 [Example 56, N2-(4-(1-amino-2-methylpropane-2-yl)-2-methoxy-5-methylphenyl)-5-chloro-N4-(2-(isopropylsulfonyl)phenyl)pyrimidine-2,4-diamine]",,,,0.053 µM,0.0049 µM,,
"COc1cc(CCN(C)C)c(C)cc1Nc1ncc(Cl)c(Nc2ccccc2S(=O)(=O)C(C)C)n1 [Example 58, 5-chloro-N2-(4-(2-(dimethylamino)ethyl)-2-methoxy-5-methylphenyl)-N4-(2-(isopropylsulfonyl)phenyl)pyrimidine-2,4-diamine]",,,,0.013 µM,0.0014 µM,0.01 µM,"the effect of inhibiting cancer size was excellent, similar to LDK378"
"COc1cc(C(C)(C)CNC=O)c(C)cc1Nc1ncc(Cl)c(Nc2ccccc2S(=O)(=O)C(C)C)n1 [Example 59, N-(2-(4-((5-chloro-4-((2-(isopropylsulfonyl)phenyl)amino)pyrimidine-2-yl)amino)-5-methoxy-2-methylphenyl)-2-methylpropyl)formamide]",,,,0.063 µM,0.0078 µM,,
"CNCC(C)(C)c1cc(OC)c(Nc2ncc(Cl)c(Nc3ccccc3S(=O)(=O)C(C)C)n2)cc1C [Example 60, 5-chloro-N4-(2-(isopropylsulfonyl)phenyl)-N2-(2-methoxy-5-methyl-4-(2-methyl-1-(methylamino)propane-2-yl)phenyl)pyrimidine-2,4-diamine]",,,,0.041 µM,0.0015 µM,0.019 µM,
"COc1cc(CCNC=O)c(C)cc1Nc1ncc(Cl)c(Nc2ccccc2S(=O)(=O)C(C)C)n1 [Example 62, N-(4-((5-chloro-4-((2-(isopropylsulfonyl)phenyl)amino)pyrimidine-2-yl)amino)-5-methoxy-2-methylphenethyl)formamide]",,,,0.068 µM,0.004 µM,,
"CNCCc1cc(OC)c(Nc2ncc(Cl)c(Nc3ccccc3S(=O)(=O)C(C)C)n2)cc1C [Example 63, 5-chloro-N4-(2-(isopropylsulfonyl)phenyl)-N2-(2-methoxy-5-methyl-4-(2-(methylamino)ethyl)phenyl)pyrimidine-2,4-diamine]",,,,0.02 µM,0.0015 µM,,
"CNC(C)(C)c1cc(OC)c(Nc2ncc(Cl)c(Nc3ccccc3S(=O)(=O)C(C)C)n2)cc1C [Example 64, 5-chloro-N4-(2-(isopropylsulfonyl)phenyl)-N2-(2-methoxy-5-methyl-4-(2-(methylamino)propane-2-yl)phenyl)pyrimidine-2,4-diamine]",,,,0.029 µM,0.0012 µM,0.015 µM,
"COc1cc(C(C)(C)CN(C)C)c(C)cc1Nc1ncc(Cl)c(Nc2ccccc2S(=O)(=O)C(C)C)n1 [Example 65, 5-chloro-N2-(4-(1-(dimethylamino)-2-methylpropane-2-yl)-2-methoxy-5-methylphenyl)-N4-(2-(isopropylsulfonyl)phenyl)pyrimidine-2,4-diamine]",,,,0.026 µM,0.0022 µM,0.014 µM,
"COc1cc(C(C)(C)N(C)C)c(C)cc1Nc1ncc(Cl)c(Nc2ccccc2S(=O)(=O)C(C)C)n1 [Example 66, 5-chloro-N2-(4-(2-(dimethylamino)propane-2-yl)-2-methoxy-5-methylphenyl)-N4-(2-(isopropylsulfonyl)phenyl)pyrimidine-2,4-diamine]",,,,0.035 µM,0.0028 µM,,
"COc1cc(CN(C)C)c(C)cc1Nc1ncc(Cl)c(Nc2ccccc2S(=O)(=O)C(C)C)n1 [Example 70, 5-chloro-N2-(4-((dimethylamino)methyl)-2-methoxy-5-methylphenyl)-N4-(2-(isopropylsulfonyl)phenyl)pyrimidine-2,4-diamine]",,,,0.037 µM,,0.021 µM,
"CNCc1cc(OC)c(Nc2ncc(Cl)c(Nc3ccccc3S(=O)(=O)C(C)C)n2)cc1C [Example 72, 5-chloro-N4-(2-(isopropylsulfonyl)phenyl)-N2-(2-methoxy-5-methyl-4-((methylamino)methyl)phenyl)pyrimidine-2,4-diamine]",,,,0.025 µM,0.00174 µM,0.015 µM,
"C=C(C)c1cc(OCC)c(Nc2ncc(Cl)c(Nc3ccccc3S(=O)(=O)C(C)C)n2)cc1CCN [Example 74, N2-(5-(2-aminoethyl)-2-ethoxy-4-(prop-1-ene-2-yl)phenyl)-5-chloro-N4-(2-(isopropylsulfonyl)phenyl)pyrimidine-2,4-diamine]",,,,0.77 µM,,0.36 µM,
"C=C(C)c1cc(OC)c(Nc2ncc(Cl)c(Nc3ccccc3S(=O)(=O)C(C)C)n2)cc1CCN [Example 75, N2-(5-(2-aminoethyl)-2-methoxy-4-(prop-1-ene-2-yl)phenyl)-5-chloro-N4-(2-(isopropylsulfonyl)phenyl)pyrimidine-2,4-diamine]",,,,0.23 µM,,0.11 µM,
"Cc1cc(Nc2ncc(Cl)c(Nc3ccccc3S(=O)(=O)C(C)C)n2)c(OC(C)C)cc1C1CCNCC1 [LDK378, Ceritinib, reference compound]",,,,,,,"the effect of inhibiting cancer size was excellent, similar to LDK378"
